Measurements: ChEMBL document CHEMBL1201862, “PubChem BioAssay data set” (2004)
Calls of active or inactive are those of the source.

Experiments:
Cytochrome P450 2D6 = Cytochrome P450 2D6 (Homo sapiens, UniProt P10635);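 also: CYP2D6 member of a cytochrome P450 panel assay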
Cytochrome P450 1A2 = target: T1, Cytochrome P450 1A2 (Homo sapiens, UniProt P05177);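 also: PubChem cytochrome P450 panel assay, CYP1A2 panel member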
T1 sequence (P05177 whole entry): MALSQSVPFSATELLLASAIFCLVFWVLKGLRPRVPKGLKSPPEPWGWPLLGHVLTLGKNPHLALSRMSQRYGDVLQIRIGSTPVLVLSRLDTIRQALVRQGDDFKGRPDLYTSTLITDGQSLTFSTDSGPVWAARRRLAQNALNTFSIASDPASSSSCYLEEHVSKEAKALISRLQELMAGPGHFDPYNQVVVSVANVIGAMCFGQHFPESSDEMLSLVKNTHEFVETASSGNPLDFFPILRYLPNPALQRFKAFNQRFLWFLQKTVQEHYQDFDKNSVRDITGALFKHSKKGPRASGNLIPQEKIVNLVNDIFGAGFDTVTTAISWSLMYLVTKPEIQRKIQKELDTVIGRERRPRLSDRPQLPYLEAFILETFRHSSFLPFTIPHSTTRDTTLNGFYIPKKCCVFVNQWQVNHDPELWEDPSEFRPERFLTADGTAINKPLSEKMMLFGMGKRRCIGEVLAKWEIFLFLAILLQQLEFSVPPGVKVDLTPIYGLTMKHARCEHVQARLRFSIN

INS1 = experiment: INS-1E survival protection against cytokine death – cell-based, luminescence, retest, dose response (AID 449756); format: functional; conditions: Rattus norvegicus;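 also: cell death triggered by IL-1 beta plus TNF-alpha plus IFN-gamma mixture; protective hits raise ATP signal compared with cytokine alone wells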
[1] = NIH-3T3 fibroblast cytotoxicity, dose response, cytotoxicity control, cell-based, fluorescence, Alamar Blue, secondary assay (AID 2327); format: functional;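 also: NIH-3T3 mouse fibroblasts cultured with fluconazole at 8 µg/mL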
Jurkat = experiment: blockers of NF-kB activation in T cells – Jurkat, luciferase reporter, luminescence, B- and T-cell, dose response (AID 489004); format: functional, cell-based; conditions: Homo sapiens;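 also: NF-kB luciferase reporter Jurkat cells stimulated with PMA plus ionomycin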
A-375 = experiment: MITF: Counter assay: A375 proliferation Measured in Cell-Based System Using Plate Reader - 2084-03_Inhibitor_Dose_DryPowder_Activity. [Related pubchem assays (depositor defined):AID488944]; format: functional; conditions: Homo sapiens
[2] = HEK-293T viability loss, compound-treated – cell-based, uHTS hits, cytotoxicity control for B/T-cell NF-kB inhibitor project, dose response (AID 489019); format: functional;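 also: IC50 reflects cytotoxicity as loss of cell viability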
[3] = target: T2, Microphthalmia-associated transcription factor (Homo sapiens, UniProt O75030); experiment: reducers of TRPM1 reporter luminescence, concentration series – cell-based, SK-MEL-5, cherry-picked, set 3, MITF inhibitor project, dose response (AID 493073); format: functional;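 also: SK-MEL-5 melanoma cells with luciferase driven by the MITF target TRPM1 promoter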
T2 sequence (O75030 whole entry): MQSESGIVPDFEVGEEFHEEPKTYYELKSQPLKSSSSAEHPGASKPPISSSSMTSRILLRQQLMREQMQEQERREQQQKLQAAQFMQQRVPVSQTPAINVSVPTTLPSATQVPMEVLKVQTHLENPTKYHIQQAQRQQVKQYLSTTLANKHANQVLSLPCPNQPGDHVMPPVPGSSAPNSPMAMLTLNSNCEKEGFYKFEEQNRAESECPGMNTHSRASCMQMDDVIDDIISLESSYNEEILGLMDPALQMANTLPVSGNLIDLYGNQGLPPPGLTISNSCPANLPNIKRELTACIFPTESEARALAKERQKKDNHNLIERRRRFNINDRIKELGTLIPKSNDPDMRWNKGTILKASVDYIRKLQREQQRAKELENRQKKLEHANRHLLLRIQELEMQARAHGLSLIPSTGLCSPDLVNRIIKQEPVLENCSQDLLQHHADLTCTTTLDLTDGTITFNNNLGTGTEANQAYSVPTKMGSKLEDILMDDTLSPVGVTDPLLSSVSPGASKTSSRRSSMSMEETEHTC

[4] = fluconazole-exposed Candida albicans growth modulators – fluorescence, retest, confirmation (AID 2467); format: functional, cell-based
H4 = experiment: Luminescence Cell-Based Dose Response HTS to Identify Activators of 5'UTR Stem-Loop Driven Prion Protein mRNA Translation in H4 Neuroglioblastoma Cells. [Related pubchem assays: 1829 (Project Summary), 1814 (Primary HTS)]; format: functional; conditions: Homo sapiens
[5] = target: T3, Zinc finger protein mex-5 (Caenorhabditis elegans, UniProt Q9XUB2); experiment: potency of MEX-5 RNA-binding blockers – biochemical, C. elegans, fluorescence polarization, dose response (AID 1960)
T3 sequence (Q9XUB2 whole entry): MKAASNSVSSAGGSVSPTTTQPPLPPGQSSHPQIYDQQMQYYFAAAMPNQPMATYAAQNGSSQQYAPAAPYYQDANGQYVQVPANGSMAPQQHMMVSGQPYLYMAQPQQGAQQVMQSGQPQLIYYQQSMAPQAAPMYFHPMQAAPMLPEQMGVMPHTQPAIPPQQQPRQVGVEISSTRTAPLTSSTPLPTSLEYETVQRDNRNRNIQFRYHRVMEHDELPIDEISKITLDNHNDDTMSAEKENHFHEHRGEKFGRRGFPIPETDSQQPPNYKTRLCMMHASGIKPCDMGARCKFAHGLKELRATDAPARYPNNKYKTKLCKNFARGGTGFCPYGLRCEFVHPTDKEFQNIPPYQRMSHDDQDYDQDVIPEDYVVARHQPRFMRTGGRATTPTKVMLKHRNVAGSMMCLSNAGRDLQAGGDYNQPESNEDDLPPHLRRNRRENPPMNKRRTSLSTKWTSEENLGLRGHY

[6] = target: UDP-galactopyranose mutase (Mycobacterium tuberculosis, UniProt P9WIQ1); experiment: Inhibitors of Mycobacterium tuberculosis UDP-galactopyranose mutase (UGM) enzyme Measured in Biochemical System Using Plate Reader - 2105-02_Inhibitor_Dose_CherryPick_Activity. [Related pubchem assays (depositor defined):AID504439]
UDP-galactopyranose mutase, sequence (P9WIQ1 whole entry): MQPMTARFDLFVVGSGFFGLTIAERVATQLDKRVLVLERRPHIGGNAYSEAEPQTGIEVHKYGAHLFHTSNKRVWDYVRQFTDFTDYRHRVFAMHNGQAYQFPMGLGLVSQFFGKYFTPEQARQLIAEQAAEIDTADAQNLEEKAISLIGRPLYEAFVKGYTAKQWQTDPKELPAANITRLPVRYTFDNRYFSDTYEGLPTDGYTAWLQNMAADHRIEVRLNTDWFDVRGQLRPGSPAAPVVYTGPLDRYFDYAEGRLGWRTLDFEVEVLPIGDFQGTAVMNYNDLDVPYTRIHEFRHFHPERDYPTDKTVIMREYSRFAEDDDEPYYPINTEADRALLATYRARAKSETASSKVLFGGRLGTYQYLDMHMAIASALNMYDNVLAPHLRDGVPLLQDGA

[7] = Luminescence Cell-Based Dose Response HTS to Identify Activators of Luciferase Translation or Activity in H4 […] Cells. [Related pubchem assays: 1829 (Project Summary), 1814 (Primary HTS)]; format: functional
[8] = Luminescence Cell-Based Dose Confirmation HTS to Identify Activators of 5'UTR Stem-Loop Driven Alpha-Synuclein mRNA Translation in H4 Neuroglioblastoma Cells. [Related pubchem assays: 1829 (Project Summary), 1814 (Primary HTS)]; format: functional
[9] = viability of PTEN-deleted HCT116 cells – cell-based, HCT116 PTEN knockout, dose response (AID 1047); format: functional;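 also: HCT116 colon tumor cells with PTEN knocked out; cells exposed to compound for 60 hours before readout; potency for loss of cell viability measured by luminescence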
[10] = target: T4, RNA-binding protein pos-1 (Caenorhabditis elegans, UniProt G5EF15); experiment: disruptors of C. elegans POS-1 RNA interaction – biochemical, fluorescence polarization, dose response (AID 1964);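 also: purified POS-1 fused to maltose binding protein made in E. coli; potency of compounds blocking POS-1 binding to fluorescent RNA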
T4 sequence (G5EF15 whole entry): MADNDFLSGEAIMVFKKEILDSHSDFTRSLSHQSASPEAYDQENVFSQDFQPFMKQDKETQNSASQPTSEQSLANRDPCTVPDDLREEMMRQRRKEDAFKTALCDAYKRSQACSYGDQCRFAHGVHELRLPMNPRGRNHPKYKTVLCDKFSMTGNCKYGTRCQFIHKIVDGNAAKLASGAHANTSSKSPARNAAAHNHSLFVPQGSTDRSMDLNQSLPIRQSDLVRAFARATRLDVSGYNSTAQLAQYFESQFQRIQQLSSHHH

[11] = viability of HCT116 lacking mutant beta-catenin – cell-based, human colon tumor, dose response (AID 1045); format: functional;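 also: HCT116 colon tumor cells with beta catenin knocked out; cells exposed to compound for 60 hours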
Vasopressin V1a receptor = Vasopressin V1a receptor (Homo sapiens, UniProt P37288); experiment: Fluorescence-based cell-based high throughput dose response screening assay for agonists of the vasopressin 1 receptor (V1R).; format: functional
Vasopressin V1a receptor, sequence (P37288 whole entry): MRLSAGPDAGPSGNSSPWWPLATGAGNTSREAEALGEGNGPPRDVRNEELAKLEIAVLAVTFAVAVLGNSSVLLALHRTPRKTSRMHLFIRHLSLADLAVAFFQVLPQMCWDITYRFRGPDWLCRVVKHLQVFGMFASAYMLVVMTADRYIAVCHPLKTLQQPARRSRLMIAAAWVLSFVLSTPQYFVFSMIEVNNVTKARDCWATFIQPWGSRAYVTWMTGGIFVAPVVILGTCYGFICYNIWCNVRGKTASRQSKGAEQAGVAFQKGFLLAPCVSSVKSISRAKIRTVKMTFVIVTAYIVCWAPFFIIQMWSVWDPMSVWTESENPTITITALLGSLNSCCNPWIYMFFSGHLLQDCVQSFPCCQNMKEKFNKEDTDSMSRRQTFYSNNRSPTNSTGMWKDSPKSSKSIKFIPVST

Oxytocin receptor = Oxytocin receptor (Homo sapiens, UniProt P30559); experiment: Counterscreen for vasopressin 1 receptor (V1R) agonists: Fluorescence-based cell-based high throughput dose response assay for agonists of the Oxytocin Receptor (OXTR). [Related pubchem assays: 2435 (Primary screen (OXTR agonists in singlicate)), 434964 (Confirmation screen (V1R agonists in triplicate)), 434969 (Counterscreen (OXTR agonists in …; format: functional
Oxytocin receptor, sequence (P30559 whole entry): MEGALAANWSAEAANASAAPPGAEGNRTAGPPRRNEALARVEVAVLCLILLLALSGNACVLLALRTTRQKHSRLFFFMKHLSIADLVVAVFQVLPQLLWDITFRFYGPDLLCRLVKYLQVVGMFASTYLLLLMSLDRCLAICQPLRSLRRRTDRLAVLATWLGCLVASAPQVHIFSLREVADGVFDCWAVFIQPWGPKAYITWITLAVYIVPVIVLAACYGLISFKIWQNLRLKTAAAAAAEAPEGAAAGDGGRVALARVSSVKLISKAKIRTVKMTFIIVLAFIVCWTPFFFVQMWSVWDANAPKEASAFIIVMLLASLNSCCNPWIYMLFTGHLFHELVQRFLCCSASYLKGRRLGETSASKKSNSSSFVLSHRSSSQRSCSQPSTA

[12] = target: DNA dC->dU-editing enzyme APOBEC-3A (Homo sapiens, UniProt P31941); experiment: Dose Response confirmation of small molecule APOBEC3A DNA Deaminase Inhibitors via a fluorescence-based single-stranded DNA deaminase assay. [Related pubchem assays (depositor defined):AID493011, AID493024]; format: functional
DNA dC->dU-editing enzyme APOBEC-3A, sequence (P31941 whole entry): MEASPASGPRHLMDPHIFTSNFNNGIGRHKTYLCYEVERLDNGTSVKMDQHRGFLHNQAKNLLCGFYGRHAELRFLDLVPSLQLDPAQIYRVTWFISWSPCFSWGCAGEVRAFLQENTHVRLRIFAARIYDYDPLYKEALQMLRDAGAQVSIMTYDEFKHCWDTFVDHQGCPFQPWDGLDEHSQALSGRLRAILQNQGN

[13] = target: DNA dC->dU-editing enzyme APOBEC-3G (Homo sapiens, UniProt Q9HC16); format: functional;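 also: Dose-response counterscreen measuring inhibition of APOBEC3G DNA deaminase activity, run while confirming APOBEC3A inhibitors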
DNA dC->dU-editing enzyme APOBEC-3G, sequence (Q9HC16 whole entry): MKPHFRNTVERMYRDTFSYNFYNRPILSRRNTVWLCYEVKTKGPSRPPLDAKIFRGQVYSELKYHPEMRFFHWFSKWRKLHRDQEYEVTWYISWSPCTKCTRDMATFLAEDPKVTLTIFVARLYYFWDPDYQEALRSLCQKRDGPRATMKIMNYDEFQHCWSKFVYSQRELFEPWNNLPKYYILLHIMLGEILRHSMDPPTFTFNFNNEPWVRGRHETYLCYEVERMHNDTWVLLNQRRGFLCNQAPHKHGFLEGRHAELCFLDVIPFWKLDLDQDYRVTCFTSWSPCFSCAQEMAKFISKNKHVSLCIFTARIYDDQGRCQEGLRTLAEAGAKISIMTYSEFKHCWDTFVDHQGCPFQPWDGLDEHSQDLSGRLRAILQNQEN

ORF 73 = target: T5, ORF 73 (Human herpesvirus 8, UniProt O40947); experiment: KSHV LANA DNA-binding disruption – biochemical, fluorescence polarization, cherry-picked samples, dose response (AID 504725); design: species or system Human gammaherpesvirus 8;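 also: fluorescence polarization of a labeled DNA duplex reporting LANA DNA binding; potency is for inhibitors that block LANA binding to the DNA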
T5 sequence (O40947 whole entry): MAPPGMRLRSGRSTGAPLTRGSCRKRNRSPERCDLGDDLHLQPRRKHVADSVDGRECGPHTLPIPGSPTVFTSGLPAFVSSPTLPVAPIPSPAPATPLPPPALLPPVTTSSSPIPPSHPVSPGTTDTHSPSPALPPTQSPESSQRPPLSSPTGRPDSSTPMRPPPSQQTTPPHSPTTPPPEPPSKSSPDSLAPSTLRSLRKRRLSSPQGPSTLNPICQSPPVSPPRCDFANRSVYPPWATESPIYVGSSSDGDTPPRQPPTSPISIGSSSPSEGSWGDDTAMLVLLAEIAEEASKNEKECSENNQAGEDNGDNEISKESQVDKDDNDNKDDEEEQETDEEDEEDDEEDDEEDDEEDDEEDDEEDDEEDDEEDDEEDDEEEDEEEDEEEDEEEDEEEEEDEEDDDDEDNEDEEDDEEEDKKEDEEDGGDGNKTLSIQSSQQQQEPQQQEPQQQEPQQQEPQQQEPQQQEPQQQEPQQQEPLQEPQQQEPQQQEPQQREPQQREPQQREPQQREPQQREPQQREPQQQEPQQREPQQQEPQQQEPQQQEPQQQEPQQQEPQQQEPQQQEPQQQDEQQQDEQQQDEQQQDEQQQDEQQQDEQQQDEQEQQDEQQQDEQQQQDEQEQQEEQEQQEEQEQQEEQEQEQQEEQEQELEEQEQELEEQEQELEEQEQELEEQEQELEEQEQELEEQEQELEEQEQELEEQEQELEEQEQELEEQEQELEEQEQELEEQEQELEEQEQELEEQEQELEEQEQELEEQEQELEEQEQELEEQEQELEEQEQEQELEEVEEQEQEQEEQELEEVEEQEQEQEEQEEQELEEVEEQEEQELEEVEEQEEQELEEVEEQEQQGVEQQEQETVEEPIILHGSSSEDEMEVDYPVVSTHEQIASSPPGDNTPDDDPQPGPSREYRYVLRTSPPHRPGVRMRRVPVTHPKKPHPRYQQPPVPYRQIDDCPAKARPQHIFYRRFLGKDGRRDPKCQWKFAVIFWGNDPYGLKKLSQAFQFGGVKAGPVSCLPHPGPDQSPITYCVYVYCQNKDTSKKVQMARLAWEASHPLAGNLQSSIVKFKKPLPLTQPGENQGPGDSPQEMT

Keap1/Nrf2 = Keap1/Nrf2 (Homo sapiens, UniProt Q14145); experiment: disruptors of Keap1 binding to Nrf2 peptide – biochemical, fluorescence polarization, cherry-picked samples, dose response (AID 588683)
Keap1/Nrf2, sequence (Q16236 whole entry): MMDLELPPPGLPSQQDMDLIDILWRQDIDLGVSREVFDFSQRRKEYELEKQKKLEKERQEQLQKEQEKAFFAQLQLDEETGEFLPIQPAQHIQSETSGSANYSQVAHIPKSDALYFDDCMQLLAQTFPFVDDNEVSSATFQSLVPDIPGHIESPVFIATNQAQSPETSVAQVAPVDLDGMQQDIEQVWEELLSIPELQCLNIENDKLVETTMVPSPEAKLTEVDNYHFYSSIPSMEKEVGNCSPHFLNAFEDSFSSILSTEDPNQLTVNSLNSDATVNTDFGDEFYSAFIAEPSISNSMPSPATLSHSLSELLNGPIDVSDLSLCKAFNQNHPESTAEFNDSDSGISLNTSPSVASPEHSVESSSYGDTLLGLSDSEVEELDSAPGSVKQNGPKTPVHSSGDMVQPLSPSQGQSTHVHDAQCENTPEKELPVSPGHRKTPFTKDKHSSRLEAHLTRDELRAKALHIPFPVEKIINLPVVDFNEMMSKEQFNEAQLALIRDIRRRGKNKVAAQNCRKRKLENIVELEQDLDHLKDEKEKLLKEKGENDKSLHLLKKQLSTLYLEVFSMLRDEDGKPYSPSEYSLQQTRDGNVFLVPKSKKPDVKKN
Keap1/Nrf2, sequence (Q14145 whole entry): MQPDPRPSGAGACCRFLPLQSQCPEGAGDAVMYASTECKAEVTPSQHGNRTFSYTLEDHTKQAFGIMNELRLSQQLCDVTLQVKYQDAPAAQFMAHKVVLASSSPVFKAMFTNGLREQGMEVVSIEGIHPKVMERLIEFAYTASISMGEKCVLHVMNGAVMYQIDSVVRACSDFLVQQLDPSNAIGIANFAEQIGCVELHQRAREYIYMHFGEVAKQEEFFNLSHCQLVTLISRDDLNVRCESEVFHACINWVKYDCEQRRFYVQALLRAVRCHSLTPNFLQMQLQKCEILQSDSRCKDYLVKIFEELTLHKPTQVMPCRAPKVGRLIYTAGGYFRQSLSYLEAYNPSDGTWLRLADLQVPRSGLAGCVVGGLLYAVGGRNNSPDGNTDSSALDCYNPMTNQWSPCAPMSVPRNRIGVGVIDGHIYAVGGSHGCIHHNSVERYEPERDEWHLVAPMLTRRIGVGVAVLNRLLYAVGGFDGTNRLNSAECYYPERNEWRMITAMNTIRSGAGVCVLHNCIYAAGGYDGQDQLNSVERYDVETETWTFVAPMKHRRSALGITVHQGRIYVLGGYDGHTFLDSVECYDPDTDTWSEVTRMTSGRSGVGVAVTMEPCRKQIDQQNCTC

Cytochrome P450 3A4 = Cytochrome P450 3A4 (Homo sapiens, UniProt P08684);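 also: CYP3A4 tested as one member of a cytochrome P450 panel screen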
Cytochrome P450 3A4, sequence (P08684 whole entry): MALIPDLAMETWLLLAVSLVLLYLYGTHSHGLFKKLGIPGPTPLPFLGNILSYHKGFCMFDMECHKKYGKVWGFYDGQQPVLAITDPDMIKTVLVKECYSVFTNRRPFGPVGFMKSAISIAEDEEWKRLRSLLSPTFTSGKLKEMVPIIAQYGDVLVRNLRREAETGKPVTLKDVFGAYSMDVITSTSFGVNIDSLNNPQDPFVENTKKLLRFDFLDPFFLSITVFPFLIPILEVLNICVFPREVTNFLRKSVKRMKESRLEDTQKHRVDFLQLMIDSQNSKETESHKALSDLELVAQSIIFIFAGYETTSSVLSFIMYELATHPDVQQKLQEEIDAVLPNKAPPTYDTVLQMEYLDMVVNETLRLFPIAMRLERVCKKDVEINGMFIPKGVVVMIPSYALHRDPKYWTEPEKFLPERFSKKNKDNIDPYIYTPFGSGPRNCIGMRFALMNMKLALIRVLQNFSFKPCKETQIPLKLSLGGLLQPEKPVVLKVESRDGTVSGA

Phosphomannomutase 2 = target: T6, Phosphomannomutase 2 (Homo sapiens, UniProt O15305); experiment: Counter screen SAR assay for PMM2 inhibitors via a fluorescence intensity assay. [Related pubchem assays (depositor defined):AID1545, AID1574]
T6 sequence (O15305 whole entry): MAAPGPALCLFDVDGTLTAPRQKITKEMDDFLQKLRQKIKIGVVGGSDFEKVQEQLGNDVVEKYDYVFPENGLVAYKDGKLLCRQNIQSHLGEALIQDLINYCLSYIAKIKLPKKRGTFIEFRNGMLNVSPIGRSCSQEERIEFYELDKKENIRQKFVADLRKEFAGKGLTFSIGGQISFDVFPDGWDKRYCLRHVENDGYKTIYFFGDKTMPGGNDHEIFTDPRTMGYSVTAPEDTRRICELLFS

[14] = target: T7, Mannose-6-phosphate isomerase (Homo sapiens, UniProt P34949); experiment: phosphomannose isomerase inhibition – biochemical, fluorescence intensity, confirmation (AID 1535)
T7 sequence (P34949 whole entry): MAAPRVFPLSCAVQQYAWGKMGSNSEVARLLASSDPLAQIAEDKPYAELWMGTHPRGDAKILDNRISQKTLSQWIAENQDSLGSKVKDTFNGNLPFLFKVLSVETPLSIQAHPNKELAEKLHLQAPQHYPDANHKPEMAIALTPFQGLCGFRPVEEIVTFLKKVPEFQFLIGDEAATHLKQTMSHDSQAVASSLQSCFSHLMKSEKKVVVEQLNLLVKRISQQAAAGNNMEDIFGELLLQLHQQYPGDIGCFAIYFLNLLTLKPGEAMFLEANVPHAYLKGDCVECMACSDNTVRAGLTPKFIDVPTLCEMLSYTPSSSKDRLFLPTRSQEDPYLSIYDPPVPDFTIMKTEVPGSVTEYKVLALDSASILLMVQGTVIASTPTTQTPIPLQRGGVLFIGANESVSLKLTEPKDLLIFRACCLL

[15] = target: Phosphoethanolamine/phosphocholine phosphatase (Homo sapiens, UniProt Q8TCT1); experiment: SAR assay for compounds that inhibit PHOSPHO1. [Related pubchem assays (depositor defined):AID1545, AID1565, AID1574]
Phosphoethanolamine/phosphocholine phosphatase, sequence (Q8TCT1 whole entry): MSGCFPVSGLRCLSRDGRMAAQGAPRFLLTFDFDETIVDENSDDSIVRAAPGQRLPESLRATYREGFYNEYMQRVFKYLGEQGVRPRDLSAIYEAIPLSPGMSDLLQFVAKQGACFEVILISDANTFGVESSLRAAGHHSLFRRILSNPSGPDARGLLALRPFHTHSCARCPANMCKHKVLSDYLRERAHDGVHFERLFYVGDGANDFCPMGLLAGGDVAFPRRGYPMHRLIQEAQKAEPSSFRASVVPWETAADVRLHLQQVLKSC

Cytochrome P450 2D6, sequence (P10635 whole entry): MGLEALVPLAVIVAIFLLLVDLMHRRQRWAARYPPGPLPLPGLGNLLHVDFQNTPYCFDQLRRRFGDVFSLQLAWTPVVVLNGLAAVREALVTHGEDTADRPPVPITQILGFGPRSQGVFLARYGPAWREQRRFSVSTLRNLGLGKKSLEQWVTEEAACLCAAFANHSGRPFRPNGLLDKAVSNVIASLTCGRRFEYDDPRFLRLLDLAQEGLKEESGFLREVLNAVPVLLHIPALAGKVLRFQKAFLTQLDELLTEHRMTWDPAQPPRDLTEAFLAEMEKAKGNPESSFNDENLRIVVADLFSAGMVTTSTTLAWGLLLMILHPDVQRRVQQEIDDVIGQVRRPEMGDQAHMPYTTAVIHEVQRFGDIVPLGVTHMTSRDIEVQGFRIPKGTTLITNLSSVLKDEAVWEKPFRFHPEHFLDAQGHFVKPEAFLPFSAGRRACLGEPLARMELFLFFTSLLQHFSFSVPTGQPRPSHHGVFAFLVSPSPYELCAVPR

Structure (SMILES): CCNC(=O)COC(=O)c1cc(O)nc2ccccc12
- AC50 (Cytochrome P450 2D6): inconclusive
- AC50 (Cytochrome P450 1A2): 15.8 µM (inconclusive)

Structure (SMILES): CCOc1ccc(-[n+]2c(-c3ccc(OC)cc3)cn3c2CCCCC3)cc1
- AC50 (INS1): 0.312 µM (active)
- EC50 [1]: > 150 µM (inactive)
- IC50 (Jurkat): > 80 µM (inactive)
- AC50 (A-375): 48 µM (active)
- IC50 [2]: > 80 µM (inactive)
- AC50 [3]: 2.13 µM (active)
- EC50 [4]: 0.48 µM (active)

Structure (SMILES): O=C1c2cccc3c(N4CCCCC4)ccc(c23)C(=O)N1CCO
- EC50 (H4): > 120 µM (not active)
- EC50 [5]: 114 µM (active)
- AC50 [6]: 151 µM (active)
- EC50 [7]: 94.8 µM (active)
- EC50 [8]: 16.5 µM (active)
- EC50 [9]: 67.5 µM (active)
- EC50 [10]: 65.2 µM (active)
- EC50 [11]: 164 µM (active)
- EC50 (Vasopressin V1a receptor): 4.75 µM (active)
- EC50 (Oxytocin receptor): > 3.32 µM (active)

Structure (SMILES): COC(=O)C[n+]1cccc2ccccc21
- AC50 [6]: 35.7 µM (active)
- IC50 [12]: 2.81 µM (active)
- IC50 [13]: 4.46 µM (active)
- AC50 (ORF 73): 6.51 µM (active)
- AC50 (Keap1/Nrf2): 20.8 µM (active)

Structure (SMILES): Cc1ccc(CC(=O)N2CC(C)OC(C)C2)cc1 (centres undefined)
- AC50 (Cytochrome P450 2D6): inconclusive
- AC50 (Cytochrome P450 3A4): inconclusive

Structure (SMILES): CCN(CC)S(=O)(=O)c1ccc(-n2sc3ccccc3c2=O)cc1
- IC50 (Phosphomannomutase 2): > 100 µM (inactive)
- IC50 [14]: > 50 µM (inactive)
- IC50 [15]: 6.21 µM (inactive)
